Experimental data: patent US20200214324A1, “Masking Bitter Flavors” (Board of Supervisors of Louisiana State University and …, priority 2009, published 2020)
Where two headings read alike, the source gives them in different places.

Key:
[1] = taste of the mogroside itself and blocking of bitter tastes; type: in vivo
Source text: In many (but not necessarily all) uses of the present invention, it is preferred to use levels of mogroside below the threshold at which the mogroside imparts a sweetening effect. […] Mogroside V is sweet. Mogroside III has been reported to be tasteless. […] If desired, it should be possible to use Mogroside III in higher concentration than Mogroside V to block bitter or other unwanted tastes, without imparting any sweetening effect.

[2] = has been reported; cited from earlier work
[3] = blind tasting of poached chicken liver and chicken gizzard puree; type: in vivo
Description: In initial experiments, Mogroside V was tested at varying levels from 100-500 ppm. […] Mogroside V was added to a chicken liver and chicken gizzard puree, and the puree was poached to an internal temperature of 74° C. A control puree with no mogroside was identically cooked. Six individuals tasted the samples blind and could easily differentiate them.

[4] = sodium reduction blends tested on navy beans; type: in vivo
Description: (§1) These sodium reduction blends were tested with red beans, navy beans, crackers, and potato chips. Results are shown in Table III (in which “M” is an abbreviation for Mogroside V.)

[5] = sodium reduction blends tested on whole wheat crackers; type: in vivo
Description: as §1

[6] = sodium reduction blends tested on potato chips; type: in vivo
Description: as §1

[7] = sodium reduction blends tested on red beans; type: in vivo
Description: as §1

[8] = sodium reduction blends tested on shredded wheat crackers; type: in vivo
Description: as §1

C[C@H](CC[C@@H](O[C@@H]1O[C@H](CO[C@@H]2O[C@H](CO)[C@@H](O)[C@H](O)[C@H]2O)[C@@H](O)[C@H](O)[C@H]1O)C(C)(C)O)[C@H]1CC[C@@]2(C)[C@@H]3CC=C4[C@@H](CC[C@H](O[C@@H]5O[C@H](CO)[C@@H](O)[C@H](O)[C@H]5O)C4(C)C)[C@]3(C)[C@H](O)C[C@]12C [Mogroside III]
blocking of bitter tastes ([1]; preliminary tests): effectively blocks bitter tastes
taste of the compound itself [2]: tasteless

C[C@H](CC[C@@H](O[C@@H]1O[C@H](CO[C@@H]2O[C@H](CO)[C@@H](O)[C@H](O)[C@H]2O)[C@@H](O)[C@H](O)[C@H]1O[C@@H]1O[C@H](CO)[C@@H](O)[C@H](O)[C@H]1O)C(C)(C)O)[C@H]1CC[C@@]2(C)[C@@H]3CC=C4[C@@H](CC[C@H](O[C@@H]5O[C@H](CO[C@@H]6O[C@H](CO)[C@@H](O)[C@H](O)[C@H]6O)[C@@H](O)[C@H](O)[C@H]5O)C4(C)C)[C@]3(C)[C@H](O)C[C@]12C [Mogroside V]
taste of the compound itself ([1]; in vivo): sweet
taste description by six blind tasters ([3]; 150-250 ppm, puree poached to 74° C., control livery, organy, bloody): slightly sweet, “bologna-like,” and “bland.”
effect above the preferred range ([3]; above about 250 ppm): a very sweet taste developed
effect below the preferred range ([3]; below about 150 ppm): the effect was minimal
preferred levels of mogroside ([3]; initial experiments, tested 100-500 ppm): 150-250 ppm
preference of testers ([3]; samples with mogroside vs control puree, six individuals): All testers preferred the samples with mogroside
level preferred by the majority of testers ([3]; tested 100-500 ppm): 200 ppm

[Cl-].[Na+] [NaCl]
Overall Taste [4]: 6.17
Saltiness [4]: 6.13
Overall Taste [5]: 7.04
Saltiness [5]: 6.96
Overall Taste [6]: 6.97
Saltiness [6]: 6.92
Overall Taste [7]: 6.79
Saltiness [7]: 6.63
Overall Taste [8]: 6.04
Saltiness [8]: 6.04
